# Source: ChEMBL document CHEMBL4610106, “Identification of the Clinical Development Candidate MRTX849, a Covalent KRASG12C Inhibitor for the Treatment of Cancer” (J Med Chem, 2020)
# Legend:
# [1] = Half life in CD1 mouse at 3 mg/kg, iv; assay type: ADME, organism-based; conditions: in vivo
# [2] = Clearance in beagle dog at 3 mg/kg, iv; assay type: ADME, organism-based, Canis lupus familiaris; conditions: in vivo
# [3] = Half life in dog whole blood at 5 uM by LC-MS/MS analysis; assay type: ADME, tissue-based, Canis lupus familiaris
# [4] = tested on: GTPase KRas (Homo sapiens), P01116 [G12C]; assay: In-vivo target engagement at KRAS G12C mutant in athymic nude-Foxn1nu mouse xenografted with human NCI-H358 cells assessed as KRAS G12C modification level in tumor lysate at 10 mg/kg, po dosed via gavage as single administration measured after 6 hrs by LC-MS analysis relative to control; assay type: functional, organism-based; conditions: Neoplasm
# [5] = Cmax in beagle dog at 10 mg/kg, po; assay type: ADME, organism-based, Canis lupus familiaris; parameters: dose 10 mg/kg, route oral; conditions: in vivo
# [6] = Half life in mouse whole blood at 5 uM by LC-MS/MS analysis; assay type: ADME, tissue-based
# [7] = AUC (infinity) in beagle dog at 10 mg/kg, po; assay type: ADME, organism-based, Canis lupus familiaris; parameters: dose 10 mg/kg, time infinity, route oral; conditions: in vivo
# [8] = tested on: GTPase KRas (Homo sapiens), P01116 [G12C]; assay: In-vivo target engagement at KRAS G12C mutant in athymic nude-Foxn1nu mouse xenografted with human NCI-H358 cells assessed as KRAS G12C modification level in tumor lysate at 30 mg/kg, po dosed via gavage as single administration measured after 6 hrs by LC-MS analysis relative to control; assay type: functional, organism-based; conditions: Neoplasm
# [9] = Volume of distribution at steady state in CD1 mouse at 3 mg/kg, iv; assay type: ADME, organism-based; conditions: in vivo, read-out: Vdss
# [10] = Tmax in beagle dog at 10 mg/kg, po; assay type: ADME, organism-based, Canis lupus familiaris; conditions: in vivo
# [11] = Oral bioavailability in CD1 mouse at 30 mg/kg; assay type: ADME, organism-based; conditions: in vivo
# [12] = tested on: GTPase KRas (Homo sapiens), P01116 [G12C]; assay: In-vivo target engagement at KRAS G12C mutant in athymic nude-Foxn1nu mouse xenografted with human NCI-H358 cells assessed as KRAS G12C modification level in tumor lysate at 100 mg/kg, po dosed via gavage as single administration measured after 6 hrs by LC-MS analysis relative to contro; assay type: functional, organism-based; conditions: Neoplasm
# [13] = Half life in beagle dog at 3 mg/kg, iv; assay type: ADME, organism-based, Canis lupus familiaris; conditions: in vivo
# MIA PaCa-2 [14] = assay: Antitumor activity against human MIAPaCa2 cells xenografted in athymic nude-Foxn1nu mouse assessed as induction of tumor regression at 30 mg/kg, po dosed daily via gavage for 16 days; assay type: functional
# [15] = Tmax in CD1 mouse at 30 mg/kg, po; assay type: ADME, organism-based; conditions: in vivo
# [16] = Oral bioavailability in beagle dog at 10 mg/kg; assay type: ADME, organism-based, Canis lupus familiaris; conditions: in vivo
# [17] = Cmax in CD1 mouse at 30 mg/kg, po; assay type: ADME, organism-based; parameters: dose 30 mg/kg, route oral; conditions: in vivo
# [18] = AUC (infinity) in CD1 mouse at 30 mg/kg, po; assay type: ADME, organism-based; parameters: dose 30 mg/kg, time infinity, route oral; conditions: in vivo
# [19] = Clearance in CD1 mouse at 3 mg/kg, iv; assay type: ADME, organism-based; conditions: in vivo
# [20] = biological target: Glutathione S-transferase P (Homo sapiens) (UniProt P09211); assay: Drug metabolism in human whole blood assessed as GSTP1-1-mediated GSH conjugation; assay type: tissue-based
# MIA PaCa-2 [21] = assay: Antitumor activity against human MIAPaCa2 cells xenografted in athymic nude-Foxn1nu mouse assessed as induction of tumor regression at 30 mg/kg, po dosed daily via gavage for 16 days followed by drug cessation and measured up to 40 days; assay type: functional
# [22] = Half life in human whole blood at 5 uM by LC-MS/MS analysis; assay type: ADME, tissue-based
# [23] = Volume of distribution at steady state in beagle dog at 3 mg/kg, iv; assay type: ADME, organism-based, Canis lupus familiaris; conditions: in vivo, read-out: Vdss
# GTPase KRas = GTPase KRas (Homo sapiens, UniProt P01116, G12C)
# [24] = Hepatic extraction ratio in human liver microsomes; assay type: ADME, Microsome; conditions: read-out: ERH
# [25] = Hepatic extraction ratio in human hepatocytes at 10 uM incubated for 2 hrs by LC-MS analysis; assay type: ADME, cell-based, Hepatocyte; conditions: read-out: ERH
# [26] = Drug metabolism in mouse hepatocytes assessed as parent compound remaining at 10 uM incubated for 2 hrs by LC-MS analysis; assay type: ADME, cell-based, Hepatocyte; conditions: read-out: Stability
# [27] = Half life in presence of GSH in phosphate buffer at 1 uM at 37 degC by LC-MS/M analysis; assay type: physicochemical; conditions: phosphate buffer with GSH
# [28] = Cmax in CD1 mouse at 10 mg/kg, po; assay type: ADME, organism-based; parameters: dose 10 mg/kg, route oral; conditions: in vivo
# [29] = Tmax in CD1 mouse at 10 mg/kg, po; assay type: ADME, organism-based; conditions: in vivo
# [30] = Oral bioavailability in CD1 mouse at 10 mg/kg; assay type: ADME, organism-based; conditions: in vivo
# [31] = AUC (infinity) in CD1 mouse at 10 mg/kg, po; assay type: ADME, organism-based; parameters: dose 10 mg/kg, route oral, time infinity; conditions: in vivo
# [32] = Apparent permeability in pig LLC-PK1 cells; assay type: ADME, cell-based, Sus scrofa; conditions: read-out: permeability
# [33] = tested on: GTPase KRas (Homo sapiens), P01116 [G12C]; assay: Inhibition of KRAS G12C mutant in human NCI-H358 cells assessed as reduction in ERK phosphorylation incubated for 3 hrs by in-cell western method
# [34] = Protein binding in mouse plasma; assay type: ADME, cell-free; conditions: read-out: PPB (converted)
# [35] = Protein binding in human plasma; assay type: ADME, cell-free; conditions: read-out: PPB (converted)
# [36] = Permeability ratio in pig LLC-PK1 cells; assay type: ADME, cell-based, Sus scrofa
# [37] = Solubility in FaSSIF at pH 6.5; assay type: physicochemical
# Sequence of GTPase KRas (Homo sapiens), P01116 [G12C] (P01116 whole entry G12C): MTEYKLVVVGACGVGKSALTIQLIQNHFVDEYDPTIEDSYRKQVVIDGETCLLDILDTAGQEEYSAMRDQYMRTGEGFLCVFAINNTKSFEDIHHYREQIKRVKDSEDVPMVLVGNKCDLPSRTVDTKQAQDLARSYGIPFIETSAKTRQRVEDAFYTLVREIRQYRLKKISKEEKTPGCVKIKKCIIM
# Sequence of GTPase KRas (P01116 whole entry G12C): as above
# Sequence of Glutathione S-transferase P (Homo sapiens) (P09211 2-210 limits assumed): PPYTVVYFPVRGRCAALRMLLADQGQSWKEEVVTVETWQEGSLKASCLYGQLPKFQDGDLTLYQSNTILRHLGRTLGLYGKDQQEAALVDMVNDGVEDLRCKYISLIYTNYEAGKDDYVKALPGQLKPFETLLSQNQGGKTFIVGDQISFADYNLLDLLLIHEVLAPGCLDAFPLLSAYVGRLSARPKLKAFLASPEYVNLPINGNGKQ
smiles,measurement,setting,value
C=CC(=O)N1CCN(c2nc(OC[C@@H]3CCCN3C)nc3c2CCN(c2cccc4cccc(Cl)c24)C3)C[C@@H]1CC#N,half-life,[1],0.496 h
same,clearance,[2],225 mL/min/kg
same,half-life at 5 µM,[3],2 h
same,Activity,[4],70%
same,Cmax,[5],16.3 ng/mL
same,half-life at 5 µM,[6],5 h
same,AUC(0-inf),[7],31.9 ng·h/mL
same,Activity,[8],89%
same,Vd,[9],0.867 L/kg
same,Tmax,[10],0.833 h
same,bioavailability,[11],16.9%
same,Activity,[12],> 90%
same,half-life,[13],0.826 h
same,Activity,MIA PaCa-2 [14],100%
same,Tmax,[15],0.25 h
same,bioavailability,[16],4.12%
same,Cmax,[17],2460 ng/mL
same,AUC(0-inf),[18],2270 ng·h/mL
same,clearance,[19],37.3 mL/min/kg
same,Drug metabolism,[20],Metabolite detected
same,Activity,MIA PaCa-2 [21],100%
same,half-life at 5 µM,[22],14 h
same,Vd,[23],7.91 L/kg
C=CC(=O)N1CCN(c2nc(OC[C@@H]3CCCN3C)nc3c2CCN(c2cccc4ccccc24)C3)CC1CCO (stereo partly specified),IC50,GTPase KRas,> 5000 nM
C=CC(=O)N1CCN(c2nc(OC[C@@H]3CCCN3C)nc3c2CCN(c2cccc4ccccc24)C3)C(CC#N)C1 (stereo partly specified),IC50,GTPase KRas,3320 nM
C=CC(=O)N1CCN(c2nc(OC[C@@H]3CCCN3C)nc3c2CCN(c2cccc4ccccc24)C3)C(CCO)C1 (stereo partly specified),IC50,GTPase KRas,4840 nM
C=CC(=O)N1CCN(c2nc(OC[C@@H]3CCCN3C)nc3c2CCN(c2cccc4ccccc24)C3)C(CO)C1 (stereo partly specified),IC50,GTPase KRas,4530 nM
C=CC(=O)N1CCN(c2nc(OC[C@@H]3CCCN3C)nc3c2CCN(c2c(C)c(C)cc4[nH]ncc24)C3)CC1,hepatic extraction ratio,[24],< 0.55
same,IC50,GTPase KRas,254 nM
same,"hepatic extraction ratio at 2 h, 10 µM",[25],< 0.55
C=CC(=O)N1CCN(c2nc(OC[C@@H]3CCCN3C)nc3c2CCN(c2c(C(C)C)ccc4[nH]ncc24)C3)CC1,IC50,GTPase KRas,1180 nM
C=CC(=O)N1CCN(c2nc(OC[C@@H]3CCCN3C)nc3c2CCN(c2cccc4cccc(C#N)c24)C3)C[C@@H]1CC#N,IC50,GTPase KRas,64 nM
C=CC(=O)N1CCN(c2nc(OC[C@@H]3CCCN3C)nc3c2CCN(c2c(C)ccc4[nH]ncc24)C3)CC1,IC50,GTPase KRas,1500 nM
C=CC(=O)N1CCN(c2nc(OC[C@@H]3CCCN3C)nc3c2CCN(c2cc(O)cc4ccccc24)C3)CC1,"remaining at 2 h, 10 µM",[26],4%
C=C(OC)C(=O)N1CCN(c2nc(OC[C@@H]3CCCN3C)nc3c2CCN(c2cccc4cccc(Cl)c24)C3)C[C@@H]1CC#N,half-life at 5 µM,[3],> 50 h
same,half-life at 5 µM,[6],> 50 h
same,IC50,GTPase KRas,> 5000 nM
same,half-life at 5 µM,[22],40 h
COC/C=C/C(=O)N1CCN(c2nc(OC[C@@H]3CCCN3C)nc3c2CCN(c2cccc4cccc(Cl)c24)C3)C[C@@H]1CC#N,half-life at 5 µM,[3],22 h
same,half-life at 5 µM,[6],11 h
same,IC50,GTPase KRas,9 nM
same,half-life at 5 µM,[22],> 50 h
C=CC(=O)N1CCN(c2nc(OC[C@@H]3CCCN3C)nc3c2CCN(c2cccc4ccccc24)C3)CC1CO (stereo partly specified),IC50,GTPase KRas,4630 nM
C=CC(=O)N1CCN(c2nc(OC[C@@H]3CCCN3C)nc3c2CCN(c2cccc4cccc(OC)c24)C3)C[C@@H]1CC#N,IC50,GTPase KRas,22 nM
C=CC(=O)N1CCN(c2nc(OC[C@@H]3CCCN3C)nc3c2CCN(c2cccc4cccc(CC)c24)C3)C[C@@H]1CC#N,IC50,GTPase KRas,6 nM
C=CC(=O)N1CCN(c2nc(OC[C@@H]3CCCN3C)nc3c2CCN(c2cccc4ccccc24)C3)CC1,half-life,[1],0.908 h
same,Vd,[9],0.996 L/kg
same,half-life at 1 µM,[27],17 h
same,IC50,GTPase KRas,4400 nM
same,Cmax,[28],131 ng/mL
same,Tmax,[29],0.5 h
same,F,[30],13.9%
same,AUC,[31],302 ng·h/mL
C=CC(=O)N1CCN(c2nc(OC[C@@H]3CCCN3C)nc3c2CCN(c2cccc4cccc(C(F)(F)F)c24)C3)C[C@@H]1CC#N,IC50,GTPase KRas,4 nM
C=CC(=O)N1CCN(c2nc(OC[C@@H]3CCCN3C)nc3c2CCN(c2cccc4ccccc24)C3)C[C@H]1CC#N,half-life at 1 µM,[27],1 h
same,IC50,GTPase KRas,1020 nM
C=CC(=O)N1CCN(c2nc(OC[C@@H]3CCCN3C)nc3c2CCN(c2cccc4ccccc24)C3)C[C@@H]1CC#N,hepatic extraction ratio,[24],0.45
same,Papp,[32],2.2 ×10⁻⁶ cm/s
same,fIC50,[33],200 nM
same,half-life at 1 µM,[27],4 h
same,IC50,GTPase KRas,10 nM
same,fraction unbound,[34],0.05
same,"hepatic extraction ratio at 2 h, 10 µM",[25],0.9
same,fraction unbound,[35],0.05
same,Ratio,[36],28
same,solubility,[37],800 µg/mL
C=CC(=O)N1CCN(c2nc(OC[C@@H]3CCCN3C)nc3c2CCN(c2cccc4cccc(C)c24)C3)C[C@@H]1CC#N,half-life,[1],1.33 h
same,clearance,[2],151 mL/min/kg
same,Activity,[4],20%
same,Cmax,[5],17.8 ng/mL
same,AUC(0-inf),[7],39.5 ng·h/mL
same,Activity,[8],60%
same,Vd,[9],1.91 L/kg
same,Tmax,[10],1.17 h
same,IC50,GTPase KRas,1 nM
same,bioavailability,[11],31.1%
same,Activity,[12],80%
same,half-life,[13],0.966 h
same,Activity,MIA PaCa-2 [14],100%
same,Tmax,[15],0.5 h
same,bioavailability,[16],3.67%
same,Cmax,[17],1660 ng/mL
same,AUC(0-inf),[18],4910 ng·h/mL
same,clearance,[19],31.6 mL/min/kg
same,Drug metabolism,[20],Metabolite detected
same,Activity,MIA PaCa-2 [21],100%
same,Vd,[23],6.16 L/kg
CN1CCC[C@H]1COc1nc2c(c(N3CCN(C(=O)/C=C/CF)[C@@H](CC#N)C3)n1)CCN(c1cccc3cccc(Cl)c13)C2,half-life at 5 µM,[3],9 h
same,half-life at 5 µM,[6],11 h
same,IC50,GTPase KRas,3 nM
same,half-life at 5 µM,[22],> 50 h
C=CC(=O)N1CCN(c2nc(OC[C@@H]3CCCN3C)nc3c2CCN(c2cccc4ccccc24)C3)CC1CC#N (stereo partly specified),IC50,GTPase KRas,14 nM
C=CC(=O)N1CCN(c2nc(OC[C@@H]3CCCN3C)nc3c2CCN(c2c(C(F)(F)F)ccc4[nH]ncc24)C3)CC1,hepatic extraction ratio,[24],< 0.55
same,IC50,GTPase KRas,351 nM
same,"hepatic extraction ratio at 2 h, 10 µM",[25],< 0.55
C=CC(=O)N1CCN(c2nc(OC[C@@H]3CCCN3C)nc3c2CCN(c2c(CC)ccc4[nH]ncc24)C3)CC1,IC50,GTPase KRas,1080 nM
